Common to all, as to format: physicochemical
Data set [1] in a line: Hygroscopicity of the active pharmaceutical ingredient. The conditions noted are these: active pharmaceutical ingredient (API).
Data set [2] is described as follows: Solubility / biopharmaceutical classification.
Data set [3] can be described thus: XRPD of the mixed powder in the study on the mixing process (crystal form stability). The conditions noted are these: mixed powder of Example 1, mixing process.

As for `C=CC(=O)N1CCC([C@@H]2CCNc3c(C(N)=O)c(-c4ccc(Oc5ccccc5)cc4)nn32)CC1` [zanubrutinib, (S)-7-[4-(1-acryloylpiperidine)]-2-(4-phenoxyphenyl)-4,5,6,7-tetrahydropyrazolo[1,5-a]pyrimidine-3-carboxamide], in data set [1], the hygroscopicity result was “slightly hygroscopic”. Further, in data set [2], the “class of the biopharmaceutical classification system” value is on record as “class II” and the solubility entry was “pH-dependent”. Also, the “crystal form of zanubrutinib in the process (XRPD)” value in data set [3] is recorded as “remained unchanged”.

The values above are taken from patent US20220241285A1, “ORAL CAPSULE AND PREPARATION METHOD THEREFOR” (BEIGENE SWITZERLAND GMBH, priority 2019, published 2022).
